Data published in patent US12729377B2, “RNAi agents and compositions for inhibiting expression of angiopoietin-like 3 (ANGPTL3), and methods of use” (Arrowhead Pharmaceuticals, Inc., priority 2017, dated 2026).

Experiments:
Format in all cases: in vivo, LDLR KO mice
ANGPTL3 gene [1] = test: Example 14: RNAi agent and statin, serum triglycerides in LDLR knockout mice; conditions: for Avg TG normalized to pre-treatment: no injection
From the text: (§1) To evaluate the effect of co-administration of RNAi agents and statins in a disease model, LDLR KO mice were commercially obtained (The Jackson Laboratory). For three weeks prior to the onset of the study, forty-one (41) male 7 to 8 week old LDLR KO mice were placed on a high fat (“western”) diet (Teklad Custom Diets TD.88137), and remained on that diet throughout the duration of the study. Pre-dose serum samples were taken on study Day 1 after a four hour fast. The dosing regimen for the study is recited in the following Table 72:
(§2) • Mice were treated at 40 mg/kg for the first 11 days, then switched to 20 mg/kg thereafter.
(§3) The vehicle used for the oral gavage in the study was a 1:1 mixture of Ora-Plus®: Ora-Sweet® solution, which were acquired commercially. For the preparation of the atorvastatin oral gavage administrations, the respective desired dose of atorvastatin was first dissolved in sterile water (0.3 mL water per 1 mL of desired formulation) and vortexed until smooth, followed by the addition of a mixture of 1:1 Ora-Plus®: Ora-Sweet® solution (0.7 mL vehicle per 1 mL of desired formulation) and vortexed. On day 1 and for each day thereafter an oral gavage dose was administered for each of the Groups except for Group 2. On Day 23, Groups 1, 2, 3, and 4 received a single subcutaneous administration of 2.5 mg/kg dose ([…] solution) of an ANGPTL3 RNAi agent in D5W (dextrose in 5% water), or vehicle control (D5W) with no RNAi agent.
(§4) The RNAi agent tested (AD05488) included a modified sequence and an N-acetyl-galactosamine-containing targeting ligand conjugated to the 5′ terminal end of the sense strand. (See Tables 3, 4, and 5 for modified sequences and targeting ligand structures). The injections were performed between the skin and muscle (i.e. subcutaneous injections) into the loose skin over the neck and shoulder area. Serum was collected on days 8, 15, 22 (pre-RNAi agent injection), 29, 36, 43, and 50. LDLR KO mice were fasted for four hours prior to each collection.
(§5) ANGPTL3 protein levels in serum were measured by ELISA assay (R&D Systems), according to the manufacturer's recommendations. Among other biomarkers, triglycerides, total cholesterol, and low-density lipoprotein (LDL) in serum were measured on a Cobas® Integra 400 (Roche Diagnostics), according to the manufacturer's recommendations.
(§6) The ANGPTL3 protein levels, triglyceride levels, total cholesterol levels, HDL levels, and LDL levels for each animal were normalized. For normalization, respective levels of ANGPTL3 protein, TG, total cholesterol, or LDL for each animal at a time point was divided by the pre-treatment level of expression in that animal (in this case pre-dose levels on Day 1) to determine the ratio of expression “normalized to pre-treatment.” Data from the study set forth in this Example are shown in the following Tables 73-76: […]

ANGPTL3 protein = test: Example 14: RNAi agent and statin, serum ANGPTL3 protein by ELISA in LDLR knockout mice; conditions: no injection
From the text: as §1, §2, §3, §4, §5, §6

ANGPTL3 gene [2] = test: Example 14: RNAi agent and statin, serum total cholesterol in LDLR knockout mice; conditions: for Avg Total Chol normalized to pre-treatment: no injection
From the text: as §1, §2, §3, §4, §5, §6

ANGPTL3 gene [3] = test: Example 14: RNAi agent and statin, serum LDL in LDLR knockout mice; conditions: for Avg LDL normalized to pre-treatment: no injection
From the text: as §1, §2, §3, §4, §5, §6

[4] = Group 5: 10 mg/kg daily oral gavage atorvastatin, Day 8
[5] = Group 5: 10 mg/kg daily oral gavage atorvastatin, Day 15
[6] = Group 5: 10 mg/kg daily oral gavage atorvastatin, Day 22
[7] = Group 5: 10 mg/kg daily oral gavage atorvastatin, Day 29
[8] = Group 5: 10 mg/kg daily oral gavage atorvastatin, Day 36
[9] = Group 5: 10 mg/kg daily oral gavage atorvastatin, Day 43
[10] = Group 5: 10 mg/kg daily oral gavage atorvastatin, Day 50
[11] = Group 6: 20 mg/kg* daily oral gavage atorvastatin (40 mg/kg first 11 days), Day 8
[12] = Group 6: 20 mg/kg* daily oral gavage atorvastatin (40 mg/kg first 11 days), Day 15
[13] = Group 6: 20 mg/kg* daily oral gavage atorvastatin (40 mg/kg first 11 days), Day 22
[14] = Group 6: 20 mg/kg* daily oral gavage atorvastatin (40 mg/kg first 11 days), Day 29
[15] = Group 6: 20 mg/kg* daily oral gavage atorvastatin (40 mg/kg first 11 days), Day 36
[16] = Group 6: 20 mg/kg* daily oral gavage atorvastatin (40 mg/kg first 11 days), Day 43
[17] = Group 6: 20 mg/kg* daily oral gavage atorvastatin (40 mg/kg first 11 days), Day 50
[18] = daily atorvastatin by oral gavage, LDLR KO mice on high fat diet

## CC(C)c1c(C(=O)Nc2ccccc2)c(-c2ccccc2)c(-c2ccc(F)cc2)n1CC[C@@H](O)C[C@@H](O)CC(=O)O [atorvastatin, reference compound]
ANGPTL3 gene [1]; [4]
  Avg TG normalized to pre-treatment: 0.667
ANGPTL3 gene [1]; [5]
  Avg TG normalized to pre-treatment: 0.601
ANGPTL3 gene [1]; [6]
  Avg TG normalized to pre-treatment: 1.086
ANGPTL3 gene [1]; [7]
  Avg TG normalized to pre-treatment: 0.803
ANGPTL3 gene [1]; [8]
  Avg TG normalized to pre-treatment: 0.958
ANGPTL3 gene [1]; [9]
  Avg TG normalized to pre-treatment: 0.862
ANGPTL3 gene [1]; [10]
  Avg TG normalized to pre-treatment: 0.977
ANGPTL3 gene [1]; [11]
  Avg TG normalized to pre-treatment: 0.477
ANGPTL3 gene [1]; [12]
  Avg TG normalized to pre-treatment: 0.362
ANGPTL3 gene [1]; [13]
  Avg TG normalized to pre-treatment: 0.505
ANGPTL3 gene [1]; [14]
  Avg TG normalized to pre-treatment: 0.552
ANGPTL3 gene [1]; [15]
  Avg TG normalized to pre-treatment: 0.598
ANGPTL3 gene [1]; [16]
  Avg TG normalized to pre-treatment: 0.603
ANGPTL3 gene [1]; [17]
  Avg TG normalized to pre-treatment: 0.677
ANGPTL3 gene [1]; [18]
  reduction in triglycerides: 40-60%
ANGPTL3 protein; [4]
  Avg ANGPTL3 normalized to pre-treatment: 1.577
ANGPTL3 protein; [5]
  Avg ANGPTL3 normalized to pre-treatment: 1.839
ANGPTL3 protein; [6]
  Avg ANGPTL3 normalized to pre-treatment: 1.693
ANGPTL3 protein; [7]
  Avg ANGPTL3 normalized to pre-treatment: 1.764
ANGPTL3 protein; [8]
  Avg ANGPTL3 normalized to pre-treatment: 1.851
ANGPTL3 protein; [9]
  Avg ANGPTL3 normalized to pre-treatment: 1.758
ANGPTL3 protein; [10]
  Avg ANGPTL3 normalized to pre-treatment: 1.878
ANGPTL3 protein; [11]
  Avg ANGPTL3 normalized to pre-treatment: 1.553
ANGPTL3 protein; [12]
  Avg ANGPTL3 normalized to pre-treatment: 1.924
ANGPTL3 protein; [13]
  Avg ANGPTL3 normalized to pre-treatment: 1.871
ANGPTL3 protein; [14]
  Avg ANGPTL3 normalized to pre-treatment: 1.767
ANGPTL3 protein; [15]
  Avg ANGPTL3 normalized to pre-treatment: 1.981
ANGPTL3 protein; [16]
  Avg ANGPTL3 normalized to pre-treatment: 1.935
ANGPTL3 protein; [17]
  Avg ANGPTL3 normalized to pre-treatment: 1.847
ANGPTL3 gene [2]; [4]
  Avg Total Chol normalized to pre-treatment: 0.821
ANGPTL3 gene [2]; [5]
  Avg Total Chol normalized to pre-treatment: 0.774
ANGPTL3 gene [2]; [6]
  Avg Total Chol normalized to pre-treatment: 0.980
ANGPTL3 gene [2]; [7]
  Avg Total Chol normalized to pre-treatment: 0.943
ANGPTL3 gene [2]; [8]
  Avg Total Chol normalized to pre-treatment: 1.105
ANGPTL3 gene [2]; [9]
  Avg Total Chol normalized to pre-treatment: 0.998
ANGPTL3 gene [2]; [10]
  Avg Total Chol normalized to pre-treatment: 0.987
ANGPTL3 gene [2]; [11]
  Avg Total Chol normalized to pre-treatment: 0.586
ANGPTL3 gene [2]; [12]
  Avg Total Chol normalized to pre-treatment: 0.620
ANGPTL3 gene [2]; [13]
  Avg Total Chol normalized to pre-treatment: 0.767
ANGPTL3 gene [2]; [14]
  Avg Total Chol normalized to pre-treatment: 0.761
ANGPTL3 gene [2]; [15]
  Avg Total Chol normalized to pre-treatment: 0.825
ANGPTL3 gene [2]; [16]
  Avg Total Chol normalized to pre-treatment: 0.767
ANGPTL3 gene [2]; [17]
  Avg Total Chol normalized to pre-treatment: 0.807
ANGPTL3 gene [2]; [18]
  reduction in total cholesterol: 23-40%
ANGPTL3 gene [3]; [4]
  Avg LDL normalized to pre-treatment: 0.778
ANGPTL3 gene [3]; [5]
  Avg LDL normalized to pre-treatment: 0.695
ANGPTL3 gene [3]; [6]
  Avg LDL normalized to pre-treatment: 0.861
ANGPTL3 gene [3]; [7]
  Avg LDL normalized to pre-treatment: 0.881
ANGPTL3 gene [3]; [8]
  Avg LDL normalized to pre-treatment: 0.996
ANGPTL3 gene [3]; [9]
  Avg LDL normalized to pre-treatment: 0.929
ANGPTL3 gene [3]; [10]
  Avg LDL normalized to pre-treatment: 0.872
ANGPTL3 gene [3]; [11]
  Avg LDL normalized to pre-treatment: 0.490
ANGPTL3 gene [3]; [12]
  Avg LDL normalized to pre-treatment: 0.556
ANGPTL3 gene [3]; [13]
  Avg LDL normalized to pre-treatment: 0.687
ANGPTL3 gene [3]; [14]
  Avg LDL normalized to pre-treatment: 0.700
ANGPTL3 gene [3]; [15]
  Avg LDL normalized to pre-treatment: 0.716
ANGPTL3 gene [3]; [16]
  Avg LDL normalized to pre-treatment: 0.689
ANGPTL3 gene [3]; [17]
  Avg LDL normalized to pre-treatment: 0.687
ANGPTL3 gene [3]; [18]
  reduction in LDL: 30-45%
